Values of other authors in US20110045089A1, “VITAMIN K3 DERIVATIVE / NSA FORMULATION” (priority 2009, published 2011).

Columns and labels:
[1] = for Total vitamin retention %: 1 × 2 × 3 × 4 (product of the four stress factors); for Vitamin retention, stress factor 1: vitamin premix without choline chloride: 2 months; for Vitamin retention, stress factor 4: petfood storage time: 8 months; for Vitamin retention, stress factor 2: extrusion temperature: 105° C.; for Vitamin retention, stress factor 3: drying/enrobing: 180° C.
[2] = 80° C., high humidity
[3] = premix containing choline chloride, after 6 months of storage (FIG. 2)

| Structure (SMILES) | Total vitamin retention % [1] [%] | Vitamin retention, stress factor 1: vitamin premix without choline chloride [1] [%] | Vitamin retention, stress factor 4: petfood storage time [1] [%] | Vitamin retention, stress factor 2: extrusion temperature [1] [%] | Vitamin retention, stress factor 3: drying/enrobing [1] [%] | Fraction decomposed during pelleting process [2] [%] | Original amount of K3 remaining in premix [3] [%] |
| --- | --- | --- | --- | --- | --- | --- | --- |
| CC1(S(=O)(=O)O)CC(=O)c2ccccc2C1=O.Cc1cc(C)nc(O)n1 (stereo not shown) [MPB, 2-hydroxy-4,6-dimethyl-pyrimidinium Menadione Bisulfite] | 19 | 100 | 42 | 65 | 70 | – | – |
| NC(=O)c1cccnc1 [Niacinamide, nicotinamide] | 58 | 100 | 79 | 87 | 84 | – | – |
| CC1(S(=O)(=O)[O-])CC(=O)c2ccccc2C1=O.[Na+] (stereo not shown) [MSB, Menadione Sodium Bisulphite] | 5 | 98 | 27 | 50 | 37 | – | – |
| CC1(S(=O)(=O)O)CC(=O)c2ccccc2C1=O.NC(=O)c1cccnc1 (stereo not shown) [MNB, Nicotinamide Menadione Bisulfite] | 25 | 100 | 47 | 70 | 76 | 50 | ≤ 70 |
